Experimental data: patent US20240197694A1, “MODIFIED PROTEINS AND PROTEIN BINDERS” (Cullgen (Shanghai), Inc., priority 2021, published 2024)

Target: T1, DCAF1 (1058-1396) (Homo sapiens, UniProt Q9Y4B6)
T1 construct: a fragment of a DCAF1 protein that includes amino acid residues A1058 to E1396; His6 (N, cleaved yes); made in house; host or cells: Sf9 insect cells (Bac-to-Bac baculovirus, pFastBacHT vector)
Experiment: Surface plasmon resonance (SPR) binding assay, compound binding to DCAF1
Conditions: immobilized DCAF1 (1058-1396), steady state affinity model, 25° C.
Experimental: Binding affinities of specific exemplary compounds to DCAF1 (1058-1396), which is a fragment of a DCAF1 protein that includes amino acid residues A1058 to E1396 were determined by a surface plasmon resonance (SPR) assay. Briefly, purified DCAF1 (1058-1396) proteins were immobilized at a density of 9,000-11,000 resonance units (RUs) on a CMS sensor chip. Sensorgrams were recorded at different concentrations of compounds in multi-cycle kinetic format. Data were analyzed using a steady state affinity model through Biacore Evaluation Software to provide equivalent dissociation constants (Kd).
Binding affinities of compounds to DCAF1 were determined by a surface plasmon resonance (SPR) assay. Purified DCAF1 (1058-1396) proteins were immobilized on a CMS sensor chip, and a dose range of compound solutions were injected in multi-cycle kinetic format. Data were analyzed using a steady state model to provide equivalent dissociation constants (Kd).
Protein Expression and Purification: Human DCAF1 (1058-1396) (UniPro: Q9Y4B6) coding sequences were cloned into pFastBacHT vector and were expressed in Sf9 cells using Bac-to-Bac baculovirus expression system (Thermo Fisher Scientific). The expression construct for DCAF1 (1058-1396) included a N-terminal His6-tag to facilitate the purification. DCAF1 (1058-1396) proteins were obtained from supernatants of cell lysates and purified through sequential application of Ni affinity chromatography (Ni-NTA column, Bio-Rad), Tag removal using TEV protease, and size-exclusion chromatography (Superdex 200 column, GE Healthcare).
Surface plasmon resonance (SPR) binding assays: SPR studies were performed on a Biacore X100 plus or T200 instrument (GE Healthcare). Immobilization of purified DCAF1 (1058-1396) was carried out at 25° C. using a CMS sensor chip. The surface was pre-equilibrated in HBS-EP running buffer (10 mM HEPES, pH 7.4, 150 mM NaCl, 3 mM EDTA, 0.05% P20), before being activated with EDC/NHS. DCAF1 (1058-1396) was immobilized through amino groups to a density of 9,000-12,000 resonance units (RUs) on flow cell channel 2 (FC2), whereas flow cell channel 1 (FC1) was used as reference. Both DCAF1 immobilized and reference surfaces were deactivated with 1 M ethanolamine.
Interaction experiments were performed at 25° C. The compounds were prepared and serially diluted in HBS-EP running buffer containing final 2% DMSO (6-point two-fold serial dilution, 100 μM -3.125 μM final concentration of compounds). Compound Solutions were injected individually in multi-cycle kinetic format without regeneration (flow rate 30 μL/min, association time 60 s, dissociation time 60 s). Sensorgrams from reference surfaces and blank injections were subtracted from the raw data (double-referenced) and the data was solvent-corrected prior to analysis. Data were analyzed using a steady state affinity model through Biacore Evaluation Software to provide equivalent dissociation constants (Kd).

T1 sequence (Q9Y4B6 1058-1396): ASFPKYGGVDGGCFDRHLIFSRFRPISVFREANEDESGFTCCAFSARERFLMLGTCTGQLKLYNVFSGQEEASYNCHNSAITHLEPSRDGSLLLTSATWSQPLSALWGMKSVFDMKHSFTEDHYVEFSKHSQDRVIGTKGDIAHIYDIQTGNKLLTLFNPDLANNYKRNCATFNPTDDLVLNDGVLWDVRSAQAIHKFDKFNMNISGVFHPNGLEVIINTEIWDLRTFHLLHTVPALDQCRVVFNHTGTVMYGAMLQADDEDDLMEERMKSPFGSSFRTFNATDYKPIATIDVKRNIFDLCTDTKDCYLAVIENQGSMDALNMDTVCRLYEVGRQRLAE

Work on `COC(=O)c1scc(C)c1S(=O)(=O)N1c2ccc(C)cc2C2CN(C)CCC21` (stereo not drawn) [CPD-076, methyl 3-((2,8-dimethyl-1,2,3,4,4a,9b-hexahydro-5H-pyrido[4,3-b]indol-5-yl)sulfonyl)-4-methylthiophene-2-carboxylate] yielded a Kd of 40 to 70 µM.
For `Cc1ccc2c(c1)C1CN(C)CCC1N2c1nc(S(=O)(=O)c2ccccc2)c(Cl)s1` (stereo not drawn) [CPD-061, 5-chloro-2-(2,8-dimethyl-1,2,3,4,4a,9b-hexahydro-5H-pyrido [4,3-b]indol-5-yl)-4-(phenylsulfonyl)thiazole], the Kd was > 100 µM.
With `Cc1ccc2c(c1)C1CN(C)CCC1N2C(=O)/C=C/c1nccs1` (stereo not drawn) [CPD-081, (E)-1-(2,8-dimethyl-1,2,3,4,4a,9b-hexahydro-5H-pyrido [4,3-b]indol-5-yl)-3-(thiazol-2-yl)prop-2-en-1-one] the Kd was > 100 µM.
`C#CCNC(=O)CCN1CCc2[nH]c3ccc(F)cc3c2C1` [CPD-052, 3-(8-fluoro-1,3,4,5-tetrahydro-2H-pyrido[4,3-b]indol-2-yl)-N-(prop-2-yn-1-yl)propanamide] showed a Kd of 40 to 70 µM.
In the case of `Cc1ccc2c(c1)C1CN(C)CCC1N2C(=O)c1cc2c(s1)CCCC2` (stereo not drawn) [CPD-073, (2,8-dimethyl-1,2,3,4,4a,9b-hexahydro-5H-pyrido[4,3-b]indol-5-yl)(4,5,6,7-tetrahydrobenzo[b]thiophen-2-yl)methanone], the Kd is reported as > 100 µM.
`Cc1ccc2c(c1)C1CN(C)CCC1N2C(=O)c1cc(-n2cccc2)ccn1` (stereo not drawn) [CPD-068, (4-(1H-pyrrol-1-yl)pyridin-2-yl)(2,8-dimethyl-1,2,3,4,4a,9b-hexahydro-5H-pyrido[4,3-b]indol-5-yl)methanone] was tested, and the Kd was > 100 µM.
`CN1Cc2ccccc2CC1CNC(=O)c1cncc(O)n1` (stereo not drawn) [CPD-015, 6-hydroxy-N-((2-methyl-1,2,3,4-tetrahydroisoquinolin-3-yl)methyl)pyrazine-2-carboxamide] was tested, and the Kd was > 100 µM.
For `COc1nn(C)cc1C(=O)N1c2ccc(C)cc2C2CN(C)CCC21` (stereo not drawn) [CPD-070, (2,8-dimethyl-1,2,3,4,4a,9b-hexahydro-5H-pyrido[4,3-b]indol-5-yl)(3-methoxy-1-methyl-1H-pyrazol-4-yl)methanone], the Kd was > 100 µM.
Work on `CN1CCc2c(c3ccccc3n2CCC(N)=O)C1` [CPD-060, 3-(2-methyl-1,2,3,4-tetrahydro-5H-pyrido[4,3-b]indol-5-yl)propanamide] yielded a Kd of 70 to 100 µM.
With `Cc1ccc2[nH]c3c(c2c1)CN(CC1(CC(=O)O)CC1)CC3` [CPD-055, 2-(1-((8-methyl-1,3,4,5-tetrahydro-2H-pyrido[4,3-b]indol-2-yl)methyl)cyclopropyl) acetic acid] the Kd was > 100 µM.
Work on `CN1CCc2c(c3ccccc3n2Cc2ccccc2)C1` [CPD-058, 5-benzyl-2-methyl-2,3,4,5-tetrahydro-1H-pyrido[4,3-b]indole] yielded a Kd of 70 to 100 µM.
`CN1Cc2ccccc2CC1CNC(=O)Nc1ccc2c(c1)nnn2C` (stereo not drawn) [CPD-096, 1-((2-methyl-1,2,3,4-tetrahydroisoquinolin-3-yl)methyl)-3-(1-methyl-1H-benzo [d][1,2,3]triazol-5-yl)urea] was tested, and the Kd was > 100 µM.
Work on `NCCOCCOCCOCCn1c2c(c3cc(F)ccc31)CN(CCc1cnn[nH]1)CC2` [CPD-016, 2-(2-(2-(2-(2-(2-(1H-1,2,3-triazol-5-yl)ethyl)-8-fluoro-1,2,3,4-tetrahydro-5H-pyrido[4,3-b]indol-5-yl)ethoxy)ethoxy)ethoxy)ethan-1-amine] yielded a Kd of 40 to 70 µM.
`NCCCCCCn1cccc1CNCc1ccncc1` [CPD-005, 6-(2-(((pyridin-4-ylmethyl)amino)methyl)-1H-pyrrol-1-yl)hexan-1-amine] was tested, and the Kd was 40 to 70 µM.
For `Cc1ccc2c(c1)[C@H]1CN(C)CC[C@H]1N2` (racemic) [CPD-033, cis-2,8-dimethyl-2,3,4,4a,5,9b-hexahydro-1H-pyrido[4,3-b]indole], the Kd was > 100 µM.
In the case of `CC(C)N1CCc2c(c3ccccc3n2CC(=O)O)C1` [CPD-010, 2-(2-isopropyl-1,2,3,4-tetrahydro-5H-pyrido[4,3-b]indol-5-yl)acetic acid], the Kd is reported as > 100 µM.
With `Cc1ccc2c(c1)[C@@H]1CN(C)CC[C@H]1N2` (racemic) [CPD-032, trans-2,8-dimethyl-2,3,4,4a,5,9b-hexahydro-1H-pyrido [4,3-b]indole] the Kd was > 100 µM.
In the case of `Cc1ccc(S(=O)(=O)c2nc(N3c4ccc(C)cc4C4CN(C)CCC43)sc2Cl)cc1` (stereo not drawn) [CPD-062, 5-chloro-2-(2,8-dimethyl-1,2,3,4,4a,9b-hexahydro-5H-pyrido [4,3-b]indol-5-yl)-4-tosylthiazole], the Kd is reported as > 100 µM.
With `CN1CCc2c(c3ccccc3n2-c2ccccc2)C1` [CPD-057, 2-methyl-5-phenyl-2,3,4,5-tetrahydro-1H-pyrido[4,3-b]indole] the Kd was > 100 µM.
With `CN1Cc2cc(NCCOCCOCCOCCN)ccc2CC1CNc1ncccc1F` (stereo not drawn) [CPD-017, N-(2-(2-(2-(2-aminoethoxy)ethoxy)ethoxy)ethyl)-3-(((3-fluoropyridin-2-yl)amino)methyl)-2-methyl-1,2,3,4-tetrahydroisoquinolin-7-amine] the Kd was 40 to 70 µM.
`c1ccc2c3c([nH]c2c1)CCN(CCc1ccncc1)C3` [CPD-045, 2-(2-(pyridin-4-yl)ethyl)-2,3,4,5-tetrahydro-1H-pyrido[4,3-b]indole] gave a Kd of 40 to 70 µM.
`Cc1cccc2c1[C@H]1CN(C)CC[C@H]1N2` (racemic) [CPD-041, cis-2,9-dimethyl-2,3,4,4a,5,9b-hexahydro-1H-pyrido[4,3-b]indole] was tested, and the Kd was > 100 µM.
`COc1cccc2c3c([nH]c12)CCN(C)C3` [CPD-047, 6-methoxy-2-methyl-2,3,4,5-tetrahydro-1H-pyrido[4,3-b]indole] was tested, and the Kd was > 100 µM.
In the case of `Cc1cccc2c1[C@@H]1CN(C)CC[C@H]1N2C` (racemic) [CPD-040, trans-2,5,9-trimethyl-2,3,4,4a,5,9b-hexahydro-1H-pyrido[4,3-b]indole], the Kd is reported as > 100 µM.
In the case of `OCC1(CNCc2cnc[nH]2)CC1` [CPD-105, (1-((((1H-imidazol-5-yl)methyl)amino)methyl)cyclopropyl) methanol], the Kd is reported as ≤ 40 µM.
`COc1nccc(C(=O)N2c3ccc(C)cc3C3CN(C)CCC32)n1` (stereo not drawn) [CPD-063, (2,8-dimethyl-1,2,3,4,4a,9b-hexahydro-5H-pyrido[4,3-b]indol-5-yl)(2-methoxypyrimidin-4-yl)methanone] was tested, and the Kd was > 100 µM.
`Cc1ccc2c(c1)C1CN(C)CCC1N2S(=O)(=O)c1ccc(C(=O)C(C)C)cc1` (stereo not drawn) [CPD-077, 1-(4-((2,8-dimethyl-1,2,3,4,4a,9b-hexahydro-5H-pyrido[4,3-b]indol-5-yl)sulfonyl)phenyl)-2-methylpropan-1-one] was tested, and the Kd was > 100 µM.
In the case of `COC(=O)NCCN1CCc2ccccc2C1` [CPD-023, methyl (2-(3,4-dihydroisoquinolin-2(1H)-yl)ethyl)carbamate], the Kd is reported as 70 to 100 µM.
In the case of `Cn1cccc1CNCc1ccccn1` [CPD-003, 1-(1-methyl-1H-pyrrol-2-yl)-N-(pyridin-2-ylmethyl)methanamine], the Kd is reported as > 100 µM.
`Cc1ccc(Br)c2[nH]c3c(c12)CN(C)CC3` [CPD-038, 6-bromo-2,9-dimethyl-2,3,4,5-tetrahydro-1H-pyrido[4,3-b]indole] was tested, and the Kd was > 100 µM.
In the case of `OCCCNCc1cccn1-c1ccccc1` [CPD-101, 3-(((1-phenyl-1H-pyrrol-2-yl)methyl)amino)propan-1-ol], the Kd is reported as > 100 µM.
With `COc1cc(C(=O)N2c3ccc(C)cc3C3CN(C)CCC32)ncn1` (stereo not drawn) [CPD-064, (2,8-dimethyl-1,2,3,4,4a,9b-hexahydro-5H-pyrido [4,3-b]indol-5-yl)(6-methoxypyrimidin-4-yl)methanone] the Kd was > 100 µM.
`O=C(CCN1CCc2[nH]c3ccc(Cl)cc3c2C1)N1CCOCC1` [CPD-049, 3-(8-chloro-1,3,4,5-tetrahydro-2H-pyrido[4,3-b]indol-2-yl)-1-morpholinopropan-1-one] was tested, and the Kd was ≤ 40 µM.
With `Oc1ccc(F)c(CNCc2cnc[nH]2)c1` [CPD-102, 3-((((1H-imidazol-5-yl)methyl)amino)methyl)-4-fluorophenol] the Kd was > 100 µM.
In the case of `Cc1ccc2c(c1)[C@@H]1CN(C)CC[C@H]1N2C` (racemic) [CPD-034, trans-2,5,8-trimethyl-2,3,4,4a,5,9b-hexahydro-1H-pyrido[4,3-b]indole], the Kd is reported as > 100 µM.
With `NCCCCCCn1cccc1C(=O)NCc1ccncc1` [CPD-004, 1-(6-aminohexyl)-N-(pyridin-4-ylmethyl)-1H-pyrrole-2-carboxamide] the Kd was 40 to 70 µM.
